The values that follow come from patent US20260285868A1, “IMIDAZOTRIAZINE DERIVATIVES AS IL-17 MODULATORS” (UCB BIOPHARMA SRL, priority 2023, published 2026).

The target of this test is T1, IL-17A (Homo sapiens, UniProt Q16552).
T1 sequence (Q16552 24-155): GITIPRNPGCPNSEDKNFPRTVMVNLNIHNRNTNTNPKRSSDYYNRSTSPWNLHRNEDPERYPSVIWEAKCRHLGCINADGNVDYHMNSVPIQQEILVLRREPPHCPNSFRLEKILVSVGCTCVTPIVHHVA
The test can be described thus: Inhibition of IL-17A induced IL-6 release from dermal fibroblast cell line (HDF cell line assay). Type of test: cell-based. The following applies: HDF cells stimulated with IL-17A 50 pM + TNFα 25 pM; IL-6 measured by HTRF. From the text: Inhibition of IL-17A Induced IL-6 Release from Dermal Fibroblast Cell Line
The purpose of this assay is to test the neutralising ability to IL-17 proteins, in a human primary cell system. Stimulation of normal human dermal fibroblasts (HDF) with IL-17 alone produces only a very weak signal but in combination with certain other cytokines, such as TNFα, a synergistic effect can be seen in the production of inflammatory cytokines, i.e. IL-6.
HDFs were stimulated with IL-17A (50 pM) in combination with TNF-α (25 pM). The resultant IL-6 response was then measured using a homogenous time-resolved FRET kit from Cisbio. The kit utilises two monoclonal antibodies, one labelled with Eu-Cryptate (Donor) and the second with d2 or XL665 (Acceptor). The intensity of the signal is proportional to the concentration of IL-6 present in the sample (Ratio is calculated by 665/620×104).
The ability of a compound to inhibit IL-17 induced IL-6 release from human dermal fibroblasts is measured in this assay.
HDF cells (Sigma #106-05n) were cultured in complete media (DMEM+10% FCS+2 mM L-glutamine) and maintained in a tissue culture flask using standard techniques. Cells were harvested from the tissue culture flask on the morning of the assay using TrypLE (Invitrogen #12605036). The TrypLE was neutralised using complete medium (45 mL) and the cells were centrifuged at 300×g for 3 minutes. The cells were re-suspended in complete media (5 mL) counted and adjusted to a concentration of 3.125×10^4 cells/mL before being added to the 384 well assay plate (Corning #3701) at 40 μL per well. The cells were left for a minimum of three hours, at 37° C./5% CO2, to adhere to the plate.
Compounds were serially diluted in DMSO before receiving an aqueous dilution into a 384 well dilution plate (Greiner #781281), where 5 μL from the titration plate was transferred to 45 μL of complete media and mixed to give a solution containing 10% DMSO.
Mixtures of TNFα and IL-17 cytokine were prepared in complete media to final concentrations of TNFα 25 pM/IL-17A 50 pM, then 30 μL of the solution was added to a 384 well reagent plate (Greiner #781281).
10 μL from the aqueous dilution plate was transferred to the reagent plate containing 30 μL of the diluted cytokines, to give a 2.5% DMSO solution. The compounds were incubated with the cytokine mixtures for 5 h at 37° C. […]
From the Cisbio IL-6 FRET kit (Cisbio #62IL6PEB) europium cryptate and Alexa 665 were diluted in reconstitution buffer and mixed 1:1, as per kit insert. […] The mixture was incubated at room temperature for 3 h with gentle shaking (<400 rpm) before being read on a Synergy Neo 2 plate reader (Excitation: 330 nm; Emission: 615/645 nm).
As a reminder, the IC50 is the concentration needed to halve the response being measured. For `[2H]C([2H])([2H])O[C@H]1CCN(C(=O)[C@@H]2CCC(F)(F)CO2)[C@@H](c2cnn3cc([C@@H](NC(=O)c4ccnn4C)C4CCC(F)(F)CC4)nc3n2)C1` (single isomer, unassigned) [Example 1, N—[(S)-(4,4-Difluorocyclohexyl)(3-{(2R,4S or 2S,4R)-1-[(2S)-5,5-difluorotetrahydro-pyran-2-carbonyl]-4-(trideuteriomethoxy)piperidin-2-yl}imidazo[1,2-bl[1,2,4]triazin-6-yl)methyl]-2-methylpyrazole-3-carboxamide], the IC50 was 39.8 nM. Consider `[2H]C([2H])([2H])O[C@H]1CCN(C(=O)[C@@H]2CCC(F)(F)CO2)[C@H](c2cnn3cc(C(NC(=O)c4ccnn4C)C4CCC(F)(F)CC4)nc3n2)C1` (single isomer, unassigned) [Example 2, N—[(S)-(4,4-Difluorocyclohexyl)(3-{(2S,4S or 2R,4R)-1-[(2S)-5,5-difluorotetrahydro-pyran-2-carbonyl]-4-(trideuteriomethoxy)piperidin-2-yl}imidazo[1,2-bl[1,2,4]triazin-6-yl)methyl]-2-methylpyrazole-3-carboxamide], for which the IC50 is 3.98 nM.

Consider `CO[C@H]1CCN(C(=O)[C@@H]2CCC(F)(F)CO2)[C@@H](c2cnn3cc([C@@H](NC(=O)c4ccnn4C)C4CCC(F)(F)CC4)nc3n2)C1` (single isomer, unassigned) [Example 3, N—[(S)-(4,4-Difluorocyclohexyl)(3-{(2R,4S or 2S,4R)-1-[(2S)-5,5-difluorotetrahydro-pyran-2-carbonyl]-4-methoxypiperidin-2-yl}imidazo[1,2-b][1,2,4]triazin-6-yl)methyl]-2-methylpyrazole-3-carboxamide], for which the IC50 is 39.8 nM. As for `CO[C@H]1CCN(C(=O)[C@@H]2CCC(F)(F)CO2)[C@H](c2cnn3cc(C(NC(=O)c4ccnn4C)C4CCC(F)(F)CC4)nc3n2)C1` (single isomer, unassigned) [Example 4, N—[(S)-(4,4-Difluorocyclohexyl)(3-{(2S,4S or 2R,4R)-1-[(2S)-5,5-difluorotetrahydro-pyran-2-carbonyl]-4-methoxypiperidin-2-yl}imidazo[1,2-bl[1,2,4]triazin-6-yl)methyl]-2-methylpyrazole-3-carboxamide], the IC50 was 3.16 nM.
